{
  "source": "patent US20250009725A1",
  "about": "“PHARMACEUTICAL COMPOSITION HAVING EXCELLENT DISSOLUTION PROPERTIES” (DAIICHI SANKYO COMPANY, LIMITED, priority 2021, published 2025)",
  "test": "Solubility and dissolution of valemetostat tosylate under vigorous or slow agitation",
  "type": "physicochemical",
  "description": "The object of the present invention is to provide a pharmaceutical composition in which valemetostat or a pharmaceutically acceptable salt thereof, particularly valemetostat tosylate, has excellent dissolution properties. […] Since the effect of vigorous agitation cannot be expected in vivo, a pharmaceutical composition having sufficient dissolution properties in vivo is needed.",
  "note": "Structures can show the parent of a compound that is named as a salt.",
  "data": [
    {"compound": "Cc1cc(C)c(CNC(=O)c2cc(Cl)c3c(c2C)O[C@@](C)([C@H]2CC[C@H](N(C)C)CC2)O3)c(=O)[nH]1", "note": "[valemetostat tosylate, (2R)-7-chloro-2-[trans-4-(dimethylamino)cyclohexyl]-N-[(4,6-dimethyl-2-oxo-1,2-dihydropyridin-3-yl)methyl]-2,4-dimethyl-1,3-benzodioxol-5-carboxamide p-toluenesulfonate]", "values": [
      {"measurement": "solubility (in words)", "value": "sufficient solubility"}
    ]}
  ]
}
